For one assay, the target named is CRBN/DDB1 (Homo sapiens (Human), UniProt Q96SW2). In words: IC50 measurements for binding to CRBN/DDB1 (HTRF). To be noted: His tagged CRBN+DDB, Cy5-labeled Thalidomide probe, one hour. The essentials: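 HTRF competition binding with 2 nM His-tagged CRBN-DDB1 complex, 60 nM Cy5-thalidomide probe and 0.4 nM anti-His Tb cryptate in 50 mM HEPES pH 7.5, 1 mM TCEP, 0.01% Brij-35, 50 mM NaCl, 0.1% BSA. Read after 1 h at room temperature; IC50 from four-parameter dose-response fit.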
Sequence of CRBN/DDB1 (Q96SW2 whole entry, species assumed): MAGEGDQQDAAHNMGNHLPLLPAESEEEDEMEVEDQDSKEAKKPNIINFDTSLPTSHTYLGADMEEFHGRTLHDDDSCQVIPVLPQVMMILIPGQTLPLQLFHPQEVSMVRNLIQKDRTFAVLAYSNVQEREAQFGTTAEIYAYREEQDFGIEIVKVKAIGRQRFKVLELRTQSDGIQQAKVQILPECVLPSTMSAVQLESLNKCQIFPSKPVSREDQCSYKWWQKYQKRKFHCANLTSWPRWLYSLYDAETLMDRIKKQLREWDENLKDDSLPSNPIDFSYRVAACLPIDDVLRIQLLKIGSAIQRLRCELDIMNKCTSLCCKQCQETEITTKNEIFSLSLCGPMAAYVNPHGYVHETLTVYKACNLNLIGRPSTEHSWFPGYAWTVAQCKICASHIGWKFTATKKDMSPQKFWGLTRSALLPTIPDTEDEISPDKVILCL
Sequence of CRBN/DDB1 (Q16531 whole entry partner, species assumed): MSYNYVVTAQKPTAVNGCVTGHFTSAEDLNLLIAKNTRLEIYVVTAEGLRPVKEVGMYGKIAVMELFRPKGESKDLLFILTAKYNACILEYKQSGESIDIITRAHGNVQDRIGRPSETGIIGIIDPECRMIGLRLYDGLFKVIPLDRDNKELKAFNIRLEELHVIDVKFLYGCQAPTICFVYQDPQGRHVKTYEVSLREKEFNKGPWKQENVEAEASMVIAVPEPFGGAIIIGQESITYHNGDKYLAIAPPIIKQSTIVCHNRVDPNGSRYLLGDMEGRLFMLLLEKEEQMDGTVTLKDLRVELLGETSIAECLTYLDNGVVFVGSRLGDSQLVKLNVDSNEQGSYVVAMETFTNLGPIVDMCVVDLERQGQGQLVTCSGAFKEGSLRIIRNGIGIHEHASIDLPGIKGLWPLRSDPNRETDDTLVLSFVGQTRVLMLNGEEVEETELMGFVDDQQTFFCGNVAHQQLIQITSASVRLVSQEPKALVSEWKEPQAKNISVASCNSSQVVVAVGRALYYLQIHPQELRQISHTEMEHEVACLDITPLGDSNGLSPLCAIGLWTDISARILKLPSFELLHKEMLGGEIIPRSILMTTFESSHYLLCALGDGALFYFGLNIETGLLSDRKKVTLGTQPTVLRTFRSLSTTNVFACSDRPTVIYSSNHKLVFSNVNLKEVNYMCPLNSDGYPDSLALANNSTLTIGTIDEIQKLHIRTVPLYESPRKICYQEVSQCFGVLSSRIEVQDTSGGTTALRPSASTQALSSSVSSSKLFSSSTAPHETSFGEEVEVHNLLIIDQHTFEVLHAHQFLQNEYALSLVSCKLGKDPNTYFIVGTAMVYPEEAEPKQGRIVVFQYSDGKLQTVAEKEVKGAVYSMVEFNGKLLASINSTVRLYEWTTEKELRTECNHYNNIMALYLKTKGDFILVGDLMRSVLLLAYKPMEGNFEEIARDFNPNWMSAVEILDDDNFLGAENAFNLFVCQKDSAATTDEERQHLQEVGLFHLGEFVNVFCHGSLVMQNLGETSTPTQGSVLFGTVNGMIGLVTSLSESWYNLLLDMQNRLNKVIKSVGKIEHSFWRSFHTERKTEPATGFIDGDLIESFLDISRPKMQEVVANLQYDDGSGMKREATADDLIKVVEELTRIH
Background: In TR-FRET formats the signal depends on donor and acceptor labels being close together.

In assay [1] the target is T1, IKZF2 (Homo sapiens (Human), UniProt Q96SW2+Q9UKS7). In words: In vitro IKZF2 FACS Assay in Jurkat cells. Type of assay: cell-based. Conditions: 24 hrs; for DC50: half maximal degradation concentration; for Dmax: maximal degradation percentage. On the procedure: In vitro IKZF2 FACS Assay
T1 sequence (Q9UKS7 whole entry): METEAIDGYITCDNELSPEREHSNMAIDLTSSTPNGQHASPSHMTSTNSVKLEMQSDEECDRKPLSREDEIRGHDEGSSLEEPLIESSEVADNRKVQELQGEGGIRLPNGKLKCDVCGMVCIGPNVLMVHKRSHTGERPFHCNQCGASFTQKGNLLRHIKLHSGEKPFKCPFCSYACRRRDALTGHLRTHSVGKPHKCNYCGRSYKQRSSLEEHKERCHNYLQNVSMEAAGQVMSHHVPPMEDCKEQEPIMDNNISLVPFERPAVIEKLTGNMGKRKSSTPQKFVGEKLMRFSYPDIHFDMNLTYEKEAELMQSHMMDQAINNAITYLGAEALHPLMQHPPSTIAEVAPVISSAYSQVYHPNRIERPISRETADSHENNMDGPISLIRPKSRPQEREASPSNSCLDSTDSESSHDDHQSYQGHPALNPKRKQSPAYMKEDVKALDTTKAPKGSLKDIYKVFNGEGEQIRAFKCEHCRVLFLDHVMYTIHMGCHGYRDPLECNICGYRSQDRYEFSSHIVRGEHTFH
T1 sequence (Q96SW2 whole entry): as the sequence (Q96SW2 whole entry, species assumed) above
T1 sequence (Q16531 2-1140 partner): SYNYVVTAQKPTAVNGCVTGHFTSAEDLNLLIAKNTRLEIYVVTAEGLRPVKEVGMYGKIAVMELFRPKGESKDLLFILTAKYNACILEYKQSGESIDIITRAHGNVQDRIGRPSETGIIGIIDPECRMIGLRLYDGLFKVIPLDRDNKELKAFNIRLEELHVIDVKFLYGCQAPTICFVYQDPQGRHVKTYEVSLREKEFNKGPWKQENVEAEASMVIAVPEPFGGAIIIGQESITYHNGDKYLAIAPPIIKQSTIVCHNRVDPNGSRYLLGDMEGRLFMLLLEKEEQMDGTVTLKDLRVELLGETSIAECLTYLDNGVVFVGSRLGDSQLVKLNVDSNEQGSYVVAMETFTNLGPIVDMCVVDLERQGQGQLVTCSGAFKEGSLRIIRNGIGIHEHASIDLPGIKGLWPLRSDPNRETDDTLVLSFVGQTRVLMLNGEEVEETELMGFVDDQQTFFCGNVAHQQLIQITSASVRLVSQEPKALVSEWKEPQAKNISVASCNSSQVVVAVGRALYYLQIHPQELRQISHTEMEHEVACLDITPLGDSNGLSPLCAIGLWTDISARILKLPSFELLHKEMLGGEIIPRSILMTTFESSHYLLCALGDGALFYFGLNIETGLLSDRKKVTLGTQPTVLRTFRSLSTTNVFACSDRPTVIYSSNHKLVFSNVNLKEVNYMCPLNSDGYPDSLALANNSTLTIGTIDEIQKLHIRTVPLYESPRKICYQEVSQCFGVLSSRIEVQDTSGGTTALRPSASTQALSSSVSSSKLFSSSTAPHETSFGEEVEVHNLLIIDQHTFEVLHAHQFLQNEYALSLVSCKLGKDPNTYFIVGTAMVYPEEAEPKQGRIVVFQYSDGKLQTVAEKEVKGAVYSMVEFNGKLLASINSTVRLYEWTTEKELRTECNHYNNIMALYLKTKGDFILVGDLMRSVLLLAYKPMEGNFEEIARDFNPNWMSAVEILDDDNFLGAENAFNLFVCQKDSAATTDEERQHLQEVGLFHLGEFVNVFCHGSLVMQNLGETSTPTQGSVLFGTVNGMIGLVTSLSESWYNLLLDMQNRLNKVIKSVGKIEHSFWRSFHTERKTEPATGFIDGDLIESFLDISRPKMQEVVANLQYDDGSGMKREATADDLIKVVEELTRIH
DC50, A: <1 nM; B: 1-10 nM; C: 10-100 nM; D: 100-1000 nM; E: >1000 nM. Dmax, A: >80%; B: 60-80%; C: 40-60%; D: 20-40%; E: <20%.

The target of assay [2] is T1, IKZF2. In words: In vitro IKZF2 HiBit Assay (HEK293T Flp-in-HiBiT cells). Type of assay: cell-based. To be noted: HEK293T Flp-in-HiBiT cells, 6 hrs incubation; for DC50: read-out: IKZF2 HiBit DC50; for Dmax: HEK-293T, read-out: IKZF2 HiBit Dmax (%). In a few lines:
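HEK293T Flp-in cells carrying an endogenous N-terminal HiBiT tag on IKZF2 were exposed to compound for 6 h at 0.1% DMSO. The dilution series was 11 doses at 3-fold, diluted from 1 mM. Nano-Glo HiBiT lytic luminescence, normalized to DMSO, gave DC50 for 50% degradation and Dmax across the concentration range, both reported in letter bins.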
(The HiBiT peptide binds its large partner to form an active luciferase.)

For another assay, the target named is IKZF1 (Homo sapiens (Human), UniProt Q13422+Q96SW2). In words: In vitro IKZF1 HiBit Assay (HEK293T Flp-in-HiBiT-IKZF1 stable cell line). Type of assay: cell-based. Conditions: HEK293T Flp-in-HiBiT-IKZF1 stable cell line, 6 hrs incubation; for DC50: read-out: IKZF1 HiBit DC50; for Dmax: HEK-293T, read-out: IKZF1 HiBit Dmax (%). In a few lines:
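HEK293T Flp-in cells carrying N-terminal HiBiT-tagged IKZF1 were exposed to compound (0.1% DMSO) for 6 h at 3000 cells/well. HiBiT luminescence was read after lytic LgBiT detection. DC50 and Dmax were taken from DMSO-normalized dose-response curves.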

For orientation: IC50 means the concentration needed to halve the response being measured. A high value points to weaker potency in that assay.

Sequence of IKZF1 (Q13422 whole entry): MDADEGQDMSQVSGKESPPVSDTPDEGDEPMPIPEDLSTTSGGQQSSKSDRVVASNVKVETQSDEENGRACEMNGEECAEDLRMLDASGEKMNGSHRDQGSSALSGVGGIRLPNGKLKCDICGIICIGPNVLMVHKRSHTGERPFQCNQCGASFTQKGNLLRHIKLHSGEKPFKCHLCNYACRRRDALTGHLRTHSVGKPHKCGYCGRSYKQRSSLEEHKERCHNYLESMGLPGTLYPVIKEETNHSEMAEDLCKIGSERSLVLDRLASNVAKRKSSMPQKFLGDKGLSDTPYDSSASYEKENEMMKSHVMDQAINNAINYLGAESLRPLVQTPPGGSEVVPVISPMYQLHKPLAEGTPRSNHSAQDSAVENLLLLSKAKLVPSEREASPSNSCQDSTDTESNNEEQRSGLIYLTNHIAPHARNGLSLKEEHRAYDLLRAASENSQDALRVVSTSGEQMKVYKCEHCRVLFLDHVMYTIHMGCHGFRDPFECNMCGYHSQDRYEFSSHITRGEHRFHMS
Sequence of IKZF1 (Q96SW2 whole entry): as the sequence (Q96SW2 whole entry, species assumed) above
Sequence of IKZF1 (Q16531 2-1140 partner): as the sequence (Q16531 2-1140 partner) above

As to `O=C1CCC(N2Cc3c(ccc(-c4cc(CN5CCCC5)c5ccn(C6COC6)c5n4)c3F)C2=O)C(=O)N1` (centres unmarked) [Example 223, 3-(4-fluoro-5-(1-(oxetan-3-yl)-4-(pyrrolidin-1-ylmethyl)-1H-pyrrolo[2,3-b]pyridin-6-yl)-1-oxoisoindolin-2-yl) piperidine-2,6-dione], the IC50 on CRBN/DDB1 is 100 to 500 nM. Further, the DC50 at IKZF2 [1] is 1 to 10 nM; at IKZF2 [2], less than 1 nM; on IKZF1, 1 to 10 nM. The Dmax on IKZF2 [1] is greater than 80%; at IKZF2 [2], 60 to 80%; on IKZF1, 20 to 40%.
`Cn1ccc2c(CN3CCC3)cc(-c3ccc4c(c3)CN(C3CCC(=O)NC3=O)C4=O)nc21` (centres unmarked) [Example 56, 3-(5-(4-(azetidin-1-ylmethyl)-1-methyl-1H-pyrrolo[2,3-b]pyridin-6-yl)-1-oxoisoindolin-2-yl) piperidine-2,6-dione]: the IC50 at CRBN/DDB1 is less than 100 nM. For the same compound, the DC50 is 1 to 10 nM at IKZF2 [1], less than 1 nM on IKZF2 [2] and greater than 10000 nM on IKZF1. The Dmax on IKZF2 [1] is 60 to 80%; at IKZF2 [2], greater than 80%; on IKZF1 it was 20 to 40%.
Consider `CC(C)Oc1ccnc2c(CN3CCCC3)cc(-c3ccc4c(c3)CN(C3CCC(=O)NC3=O)C4=O)nc12` (centres unmarked) [Example 232, 3-(5-(8-isopropoxy-4-(pyrrolidin-1-ylmethyl)-1,5-naphthyridin-2-yl)-1-oxoisoindolin-2-yl) piperidine-2,6-dione], for which the IC50 at CRBN/DDB1 lay in the range of 500 to 1000 nM. The DC50 was 10 to 100 nM on IKZF2 [1], 1 to 10 nM on IKZF2 [2] and greater than 10000 nM at IKZF1. In addition, the Dmax on IKZF2 [1] was 60 to 80%; on IKZF2 [2], 60 to 80%; at IKZF1 it was less than 20%.
Take `O=C1CCC(N2Cc3c(ccc(-c4cc(CN5CCCC5)c5ccn(C6CS(=O)(=O)C6)c5n4)c3F)C2=O)C(=O)N1` (centres unmarked) [Example 222, 3-(5-(1-(1,1-dioxidothietan-3-yl)-4-(pyrrolidin-1-ylmethyl)-1H-pyrrolo[2,3-b]pyridin-6-yl)-4-fluoro-1-oxoisoindolin-2-yl) piperidine-2,6-dione]: on CRBN/DDB1, the IC50 was in the range of 100 to 500 nM. Further, the DC50 was in the range of 1 to 10 nM on IKZF2 [1], 1 to 10 nM on IKZF2 [2] and 10 to 100 nM on IKZF1. The results for the Dmax at IKZF2 [1], at IKZF2 [2] and at IKZF1 were greater than 80%, greater than 80% and 20 to 40%, respectively.
As to `COC1CCN(Cc2cc(-c3ccc4c(c3)CN(C3CCC(=O)NC3=O)C4=O)nc3c2ccn3C2COC2)CC1` (centres unmarked) [Example 189, 3-(5-(4-((4-methoxypiperidin-1-yl)methyl)-1-(oxetan-3-yl)-1H-pyrrolo[2,3-b]pyridin-6-yl)-1-oxoisoindolin-2-yl) piperidine-2,6-dione], the IC50 at CRBN/DDB1 was 100 to 500 nM. The DC50 was 1 to 10 nM on IKZF2 [1], 1 to 10 nM on IKZF2 [2] and 10 to 100 nM on IKZF1. The Dmax on IKZF2 [1] is greater than 80%; on IKZF2 [2], greater than 80%; on IKZF1 it was 20 to 40%.
In turn, `O=C1CCC(N2Cc3cc(-c4cc(CN5CCCC5)c5ncn(C6COC6)c5n4)ccc3C2=O)C(=O)N1` (centres unmarked) [Example 211, 3-(5-(3-(oxetan-3-yl)-7-(pyrrolidin-1-ylmethyl)-3H-imidazo[4,5-b]pyridin-5-yl)-1-oxoisoindolin-2-yl) piperidine-2,6-dione] returned an IC50 at CRBN/DDB1 of 500 to 1000 nM. For the same compound, the DC50 on IKZF2 [1] was 10 to 100 nM; at IKZF2 [2] it was 10 to 100 nM; on IKZF1, greater than 10000 nM. Further, the results for the Dmax at IKZF2 [1], on IKZF2 [2] and at IKZF1 were 60 to 80%, 60 to 80% and less than 20%, respectively.
The compound `O=C1CCC(N2Cc3cc(-c4cc(CN5CCCC5)c5ccn(C6COC6)c5n4)ccc3C2=O)C(=O)N1` (centres unmarked) [Example 129, 3-(5-(1-(oxetan-3-yl)-4-(pyrrolidin-1-ylmethyl)-1H-pyrrolo[2,3-b]pyridin-6-yl)-1-oxoisoindolin-2-yl) piperidine-2,6-dione] registered an IC50 at CRBN/DDB1 of 100 to 500 nM. The values for the DC50 at IKZF2 [1], on IKZF2 [2] and at IKZF1 were 1 to 10 nM, less than 1 nM and 10 to 100 nM, respectively. Moreover, the Dmax at IKZF2 [1] was greater than 80%; at IKZF2 [2] it was greater than 80%; at IKZF1, 20 to 40%.
With `O=C1CCC(N2Cc3cc(-c4cc(CN5CCCC5)c5ccn(C6CCOC6)c5n4)ccc3C2=O)C(=O)N1` (centres unmarked) [Example 170, 3-(1-oxo-5-(4-(pyrrolidin-1-ylmethyl)-1-(tetrahydrofuran-3-yl)-1H-pyrrolo[2,3-b]pyridin-6-yl)isoindolin-2-yl) piperidine-2,6-dione], the IC50 at CRBN/DDB1 is 500 to 1000 nM. The DC50 on IKZF2 [1] was 10 to 100 nM; at IKZF2 [2], 1 to 10 nM; on IKZF1, greater than 10000 nM. The Dmax on IKZF2 [1] is 60 to 80%; on IKZF2 [2], 60 to 80%; on IKZF1, less than 20%.
`Cn1ccc2c(CN3CCCC3)c(Cl)c(-c3ccc4c(c3)CN(C3CCC(=O)NC3=O)C4=O)nc21` (centres unmarked) [Example 229, 3-(5-(5-chloro-1-methyl-4-(pyrrolidin-1-ylmethyl)-1H-pyrrolo[2,3-b]pyridin-6-yl)-1-oxoisoindolin-2-yl) piperidine-2,6-dione] registered an IC50 at CRBN/DDB1 of 100 to 500 nM. Moreover, the DC50 on IKZF2 [1] is 1 to 10 nM; at IKZF2 [2], 1 to 10 nM; at IKZF1, greater than 10000 nM. Moreover, the Dmax is 60 to 80% on IKZF2 [1], 60 to 80% at IKZF2 [2] and less than 20% at IKZF1.
In turn, `CC(C)Nc1n[nH]c2c(CN3CCCC3)cc(-c3ccc4c(c3F)CN(C3CCC(=O)NC3=O)C4=O)nc12` (centres unmarked) [Example 226, 3-(4-fluoro-5-(3-(isopropylamino)-7-(pyrrolidin-1-ylmethyl)-1H-pyrazolo[4,3-b]pyridin-5-yl)-1-oxoisoindolin-2-yl) piperidine-2,6-dione] returned an IC50 at CRBN/DDB1 of 100 to 500 nM. Also, the DC50 on IKZF2 [1] is 1 to 10 nM; at IKZF2 [2], less than 1 nM; at IKZF1 it was greater than 10000 nM. Moreover, the Dmax on IKZF2 [1] is greater than 80%; at IKZF2 [2] it was greater than 80%; at IKZF1, less than 20%.
Compound `O=C1CCC(N2Cc3cc(-c4cc(CN5CCC(CO)C5)c5ccn(C6COC6)c5n4)ccc3C2=O)C(=O)N1` (centres unmarked) [Example 164, 3-(5-(4-((3-(hydroxymethyl)pyrrolidin-1-yl)methyl)-1-(oxetan-3-yl)-1H-pyrrolo[2,3-b]pyridin-6-yl)-1-oxoisoindolin-2-yl) piperidine-2,6-dione] gave an IC50 on CRBN/DDB1 of 100 to 500 nM. In addition, the DC50 at IKZF2 [1] was 10 to 100 nM; on IKZF2 [2] it was 10 to 100 nM; on IKZF1, 100 to 1000 nM. Besides, the Dmax at IKZF2 [1] is greater than 80%; at IKZF2 [2], 60 to 80%; on IKZF1 it was 20 to 40%.
In turn, `O=C1CCC(N2Cc3cc(-c4cc(CN5CC6COCC(C6)C5)c5cc[nH]c5n4)ccc3C2=O)C(=O)N1` (centres unmarked) [Example 121, 3-(5-(4-((3-oxa-7-azabicyclo[3.3.1]nonan-7-yl)methyl)-1H-pyrrolo[2,3-b]pyridin-6-yl)-1-oxoisoindolin-2-yl) piperidine-2,6-dio] gave an IC50 at CRBN/DDB1 of 1000 to 5000 nM. Further, the values for the DC50 on IKZF2 [1], at IKZF2 [2] and on IKZF1 were 10 to 100 nM, 1 to 10 nM and greater than 10000 nM, respectively. Further, the values for the Dmax on IKZF2 [1], on IKZF2 [2] and on IKZF1 were greater than 80%, greater than 80% and less than 20%, respectively.
The compound `O=C1CCC(N2Cc3cc(-c4cc(CN5CCC(F)CC5)c5ccn(C6COC6)c5n4)ccc3C2=O)C(=O)N1` (centres unmarked) [Example 187, 3-(5-(4-((4-fluoropiperidin-1-yl)methyl)-1-(oxetan-3-yl)-1H-pyrrolo[2,3-b]pyridin-6-yl)-1-oxoisoindolin-2-yl) piperidine-2,6-dione] gave an IC50 at CRBN/DDB1 of 100 to 500 nM. The results for the DC50 at IKZF2 [1], on IKZF2 [2] and on IKZF1 were 1 to 10 nM, 1 to 10 nM and greater than 10000 nM, respectively. The Dmax at IKZF2 [1] is greater than 80%; at IKZF2 [2], greater than 80%; on IKZF1 it was less than 20%.
`CC1CCN(Cc2cc(-c3ccc4c(c3)CN(C3CCC(=O)NC3=O)C4=O)n3cncc3c2)C1` (centres unmarked) [Example 6, 3-(5-(7-((3-methylpyrrolidin-1-yl)methyl)imidazo[1,5-a]pyridin-5-yl)-1-oxoisoindolin-2-yl) piperidine-2,6-dione]: the IC50 on CRBN/DDB1 was 100 to 500 nM. Besides, the DC50 on IKZF2 [1] was 10 to 100 nM; on IKZF2 [2], 10 to 100 nM; on IKZF1, greater than 10000 nM. The Dmax is 60 to 80% on IKZF2 [1], 60 to 80% at IKZF2 [2] and less than 20% at IKZF1.
